Data from PubChem BioAssay (NCI).
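Tested at 5 concentrations; 48 h exposure; 96-well plates; endpoints linearly interpolated, else capped at highest concentration. At the GI50, growth is halved. Definition used: TGI = concentration required for complete inhibition of growth.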

Key:
Assay in all cases: NCI tumour cell line growth inhibition, 48 h
MALME-3M melanoma = tested on: MALME-3M melanoma
HT29 colon = tested on: HT29 colon
COLO 205 colon = tested on: COLO 205 colon
NCI-H460 lung = tested on: NCI-H460 lung
IGROV1 ovarian = tested on: IGROV1 ovarian
UACC-62 melanoma = tested on: UACC-62 melanoma
RPMI-8226 leukemia = tested on: RPMI-8226 leukemia
DU-145 prostate = tested on: DU-145 prostate
UO-31 renal = tested on: UO-31 renal
SF-539 CNS = tested on: SF-539 CNS
HCC-2998 colon = tested on: HCC-2998 colon
EKVX NSCLC = tested on: EKVX NSCLC
OVCAR-8 ovarian = tested on: OVCAR-8 ovarian
CAKI-1 renal = tested on: CAKI-1 renal
OVCAR-3 ovarian = tested on: OVCAR-3 ovarian
TK-10 renal = tested on: TK-10 renal
HS 578T breast = tested on: HS 578T breast
HL-60(TB) leukemia = tested on: HL-60(TB) leukemia
UACC-257 melanoma = tested on: UACC-257 melanoma
NCI-H226 lung = tested on: NCI-H226 lung
T-47D breast = tested on: T-47D breast
SW-620 colon = tested on: SW-620 colon
NCI/ADR-RES ovarian = tested on: NCI/ADR-RES ovarian
LOX IMVI melanoma = tested on: LOX IMVI melanoma
SK-OV-3 ovarian = tested on: SK-OV-3 ovarian
OVCAR-5 ovarian = tested on: OVCAR-5 ovarian
BT-549 breast = tested on: BT-549 breast
M14 melanoma = tested on: M14 melanoma
MOLT-4 leukemia = tested on: MOLT-4 leukemia
PC-3 prostate = tested on: PC-3 prostate
SK-MEL-28 melanoma = tested on: SK-MEL-28 melanoma
786-0 renal = tested on: 786-0 renal
SK-MEL-5 melanoma = tested on: SK-MEL-5 melanoma
HOP-62 NSCLC = tested on: HOP-62 NSCLC
K-562 leukemia = tested on: K-562 leukemia
HCT-116 colon = tested on: HCT-116 colon
SN12C renal = tested on: SN12C renal
SK-MEL-2 melanoma = tested on: SK-MEL-2 melanoma
ACHN renal = tested on: ACHN renal
MDA-MB-231 breast = tested on: MDA-MB-231 breast
A498 renal = tested on: A498 renal
RXF 393 renal = tested on: RXF 393 renal
SR leukemia = tested on: SR leukemia
NCI-H522 lung = tested on: NCI-H522 lung
SF-268 CNS = tested on: SF-268 CNS
A549 NSCLC = tested on: A549 NSCLC
SF-295 CNS = tested on: SF-295 CNS
U251 CNS = tested on: U251 CNS
HCT-15 colon = tested on: HCT-15 colon
OVCAR-4 ovarian = tested on: OVCAR-4 ovarian
NCI-H23 lung = tested on: NCI-H23 lung
SNB-75 CNS = tested on: SNB-75 CNS
KM12 colon = tested on: KM12 colon
MCF7 breast = tested on: MCF7 breast
CCRF-CEM leukemia = tested on: CCRF-CEM leukemia
MDA-MB-435 = tested on: MDA-MB-435

Question: What does the source list for `CCCC(CCC)Oc1ccc(CCCC2=C(O)c3ccccc3C(=O)C2=O)cc1`?
Answer: GI50 (MALME-3M melanoma): 7.53 µM; TGI (MALME-3M melanoma): 23.5 µM; GI50 (HT29 colon): 6.2 µM; TGI (HT29 colon): 17.9 µM; GI50 (COLO 205 colon): 6.7 µM; TGI (COLO 205 colon): 32.3 µM; GI50 (NCI-H460 lung): 3.03 µM; TGI (NCI-H460 lung): 11.1 µM; GI50 (IGROV1 ovarian): 4.93 µM; TGI (IGROV1 ovarian): 18.5 µM; GI50 (UACC-62 melanoma): 3.16 µM; TGI (UACC-62 melanoma): 17 µM; GI50 (RPMI-8226 leukemia): 2.9 µM; TGI (RPMI-8226 leukemia): 7.49 µM; GI50 (DU-145 prostate): 6.71 µM; TGI (DU-145 prostate): 19 µM; GI50 (UO-31 renal): 2.69 µM; TGI (UO-31 renal): 13.8 µM; GI50 (SF-539 CNS): 5.43 µM; TGI (SF-539 CNS): 18.7 µM; GI50 (HCC-2998 colon): 2.8 µM; TGI (HCC-2998 colon): 10.1 µM; GI50 (EKVX NSCLC): 5.61 µM; TGI (EKVX NSCLC): 18 µM; GI50 (OVCAR-8 ovarian): 10.2 µM; TGI (OVCAR-8 ovarian): 69.7 µM; GI50 (CAKI-1 renal): 2.46 µM; TGI (CAKI-1 renal): 8.66 µM; GI50 (OVCAR-3 ovarian): 4.33 µM; TGI (OVCAR-3 ovarian): 15 µM; GI50 (TK-10 renal): 8.03 µM; TGI (TK-10 renal): 21.3 µM; GI50 (HS 578T breast): 11.7 µM; TGI (HS 578T breast): 37.4 µM; GI50 (HL-60(TB) leukemia): 2.68 µM; TGI (HL-60(TB) leukemia): 6.27 µM; GI50 (UACC-257 melanoma): 7.07 µM; TGI (UACC-257 melanoma): 43.1 µM; GI50 (NCI-H226 lung): 4.24 µM; TGI (NCI-H226 lung): 20.8 µM; GI50 (T-47D breast): 12 µM; TGI (T-47D breast): 31.6 µM; GI50 (SW-620 colon): 4.61 µM; TGI (SW-620 colon): 17 µM; GI50 (NCI/ADR-RES ovarian): 5.36 µM; TGI (NCI/ADR-RES ovarian): 22.5 µM; GI50 (LOX IMVI melanoma): 3.34 µM; TGI (LOX IMVI melanoma): 10.5 µM; GI50 (SK-OV-3 ovarian): 12.6 µM; TGI (SK-OV-3 ovarian): 28.3 µM; GI50 (OVCAR-5 ovarian): 11.8 µM; TGI (OVCAR-5 ovarian): 25.8 µM; GI50 (BT-549 breast): 8.74 µM; TGI (BT-549 breast): 20.9 µM; GI50 (M14 melanoma): 9.35 µM; TGI (M14 melanoma): 22.2 µM; GI50 (MOLT-4 leukemia): 3.25 µM; TGI (MOLT-4 leukemia): 11.5 µM; GI50 (PC-3 prostate): 3 µM; TGI (PC-3 prostate): 15.7 µM; GI50 (SK-MEL-28 melanoma): 10.1 µM; TGI (SK-MEL-28 melanoma): 21.7 µM; GI50 (786-0 renal): 4.11 µM; TGI (786-0 renal): 16.8 µM; GI50 (SK-MEL-5 melanoma): 3.14 µM; TGI (SK-MEL-5 melanoma): 13.6 µM; GI50 (HOP-62 NSCLC): 7.6 µM; TGI (HOP-62 NSCLC): 22.3 µM; GI50 (K-562 leukemia): 3.31 µM; TGI (K-562 leukemia): 10.7 µM; GI50 (HCT-116 colon): 2.17 µM; TGI (HCT-116 colon): 13.6 µM; GI50 (SN12C renal): 6.79 µM; TGI (SN12C renal): 22.5 µM; GI50 (SK-MEL-2 melanoma): 6.85 µM; TGI (SK-MEL-2 melanoma): 28 µM; GI50 (ACHN renal): 6.69 µM; TGI (ACHN renal): 19 µM; GI50 (MDA-MB-231 breast): 12.3 µM; TGI (MDA-MB-231 breast): 28.9 µM; GI50 (A498 renal): 7.21 µM; TGI (A498 renal): 20.1 µM; GI50 (RXF 393 renal): 5.75 µM; TGI (RXF 393 renal): 21.5 µM; GI50 (SR leukemia): 3.09 µM; TGI (SR leukemia): 8.3 µM; GI50 (NCI-H522 lung): 5.75 µM; TGI (NCI-H522 lung): 22.2 µM; GI50 (SF-268 CNS): 5.22 µM; TGI (SF-268 CNS): 18.9 µM; GI50 (A549 NSCLC): 4.11 µM; TGI (A549 NSCLC): 22.4 µM; GI50 (SF-295 CNS): 2.1 µM; TGI (SF-295 CNS): 10.4 µM; GI50 (U251 CNS): 5.37 µM; TGI (U251 CNS): 17.5 µM; GI50 (HCT-15 colon): 3.76 µM; TGI (HCT-15 colon): 15 µM; GI50 (OVCAR-4 ovarian): 8.14 µM; TGI (OVCAR-4 ovarian): 20.5 µM; GI50 (NCI-H23 lung): 5.94 µM; TGI (NCI-H23 lung): 21.1 µM; GI50 (SNB-75 CNS): 11.3 µM; TGI (SNB-75 CNS): 26.3 µM; GI50 (KM12 colon): 6.18 µM; TGI (KM12 colon): 22.3 µM; GI50 (MCF7 breast): 4.32 µM; TGI (MCF7 breast): 15.2 µM; GI50 (CCRF-CEM leukemia): 2.9 µM; TGI (CCRF-CEM leukemia): 17.1 µM; GI50 (MDA-MB-435): 4.72 µM; TGI (MDA-MB-435): 17.6 µM
